IC50 data for 2 compounds are collected here from patent US20200216416A1, “QUINOLINE COMPOUNDS AS INHIBITORS OF TAM AND MET KINASES” (Array BioPharma Inc., priority 2019, published 2020).

Assay [1] concerns the target T1, His-tagged recombinant human AXL cytoplasmic domain (Homo sapiens, UniProt P30530).
T1 construct: His-tagged recombinant human AXL cytoplasmic domain
T1 sequence (P30530 473-894 limits assumed): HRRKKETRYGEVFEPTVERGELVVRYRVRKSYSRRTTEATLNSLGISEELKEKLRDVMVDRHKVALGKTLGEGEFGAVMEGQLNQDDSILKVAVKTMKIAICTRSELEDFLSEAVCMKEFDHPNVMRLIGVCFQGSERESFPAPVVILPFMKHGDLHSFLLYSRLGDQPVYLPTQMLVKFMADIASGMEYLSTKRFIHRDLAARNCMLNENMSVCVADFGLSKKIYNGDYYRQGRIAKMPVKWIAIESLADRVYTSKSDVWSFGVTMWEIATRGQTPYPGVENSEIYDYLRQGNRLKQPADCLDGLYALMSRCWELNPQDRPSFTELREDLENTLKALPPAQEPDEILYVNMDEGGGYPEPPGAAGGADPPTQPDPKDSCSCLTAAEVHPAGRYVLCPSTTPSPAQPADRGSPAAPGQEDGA
As to the kind of experiment: AXL Enzyme Assay (LanthaScreen Eu Kinase Binding). The note with it: averaged IC50; 60-minute incubation at 22° C.; TR-FRET. The method in brief:
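TR-FRET binding-displacement format: 20 nM Alexa Fluor Tracer 236, 2 nM biotin-anti-His and 2 nM Eu-streptavidin in 25 mM HEPES pH 7.4, 10 mM MgCl2, 0.01% Triton X-100, 2% DMSO. After 60 min at 22 °C, ratiometric percent of control was fitted to a 4-parameter logistic curve, IC50 taken at 50 POC.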
(In general: TR-FRET usually uses a lanthanide donor and a delayed reading to cut background.)

In assay [2] the target is T2, His-tagged recombinant human MER cytoplasmic domain (Homo sapiens, UniProt Q12866).
T2 construct: His-tagged recombinant human MER cytoplasmic domain
T2 sequence (Q12866 527-999 limits assumed): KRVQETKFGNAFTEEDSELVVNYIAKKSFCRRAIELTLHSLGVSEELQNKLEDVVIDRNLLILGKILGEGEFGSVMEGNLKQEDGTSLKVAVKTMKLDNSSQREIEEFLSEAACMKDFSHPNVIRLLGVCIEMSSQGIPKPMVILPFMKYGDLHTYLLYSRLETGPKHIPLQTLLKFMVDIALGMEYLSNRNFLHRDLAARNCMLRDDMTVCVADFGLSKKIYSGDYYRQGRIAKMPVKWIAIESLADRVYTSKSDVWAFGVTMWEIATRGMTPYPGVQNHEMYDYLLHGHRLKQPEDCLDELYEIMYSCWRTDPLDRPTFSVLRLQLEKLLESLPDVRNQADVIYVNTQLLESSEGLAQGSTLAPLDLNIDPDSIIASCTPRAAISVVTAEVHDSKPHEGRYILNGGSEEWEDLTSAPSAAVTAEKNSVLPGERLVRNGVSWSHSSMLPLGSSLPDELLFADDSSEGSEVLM
As to the kind of experiment: MER Enzyme Assay (LanthaScreen Eu Kinase Binding). The note with it: averaged IC50; MER 5 nM; 60-minute incubation at 22° C.; TR-FRET. A digest of the protocol:
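TR-FRET binding: 5 nM His-MER cytoplasmic domain with 20 nM Tracer 236, 2 nM biotin-anti-His and 2 nM Eu-streptavidin in pH 7.4 HEPES, 10 mM MgCl2, 2% DMSO, with threefold compound dilutions, 60 min at 22 °C. Percent of control was fit to a 4-parameter logistic, and IC50 was taken at 50 POC.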

The target of the next assay is T3, human MET kinase D1228H (Homo sapiens, UniProt P08581, D1228H).
T3 construct: GST-tagged recombinant human MET kinase domain; purchased Signal Chem
As to the kind of experiment: c-Met Enzyme Assay, D1228H mutant. The format is binding. The note with it: averaged IC50; D1228H 2 nM; 60-minute incubation at 22° C.; read-out: D1228 H IC50. The method in brief: (§1)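 GST-tagged recombinant MET kinase domain was incubated with 50 nM Alexa-Fluor tracer 236, 2 nM Eu-anti-GST and compound in 25 mM HEPES pH 7.4, 10 mM MgCl2, 0.01% Triton X-100, 1 mM DTT, 2% DMSO for 60 min at 22 °C. TR-FRET ratio gave percent of control, fitted 4-parameter; IC50 at 50 POC.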

In another assay the target is T4, human MET kinase D1228N (Homo sapiens, UniProt P08581, D1228N).
T4 construct: GST-tagged recombinant human MET kinase domain; purchased Signal Chem
Kind of assay: c-Met Enzyme Assay, D1228N mutant. The format is binding. The note with it: averaged IC50; D1228N 2 nM; 60-minute incubation at 22° C.; read-out: D1228 N IC50. A digest of the protocol:
as §1

Broadly, the IC50 is the midpoint of a concentration-inhibition curve.

T4 sequence (P08581 1078-1345 D1228N): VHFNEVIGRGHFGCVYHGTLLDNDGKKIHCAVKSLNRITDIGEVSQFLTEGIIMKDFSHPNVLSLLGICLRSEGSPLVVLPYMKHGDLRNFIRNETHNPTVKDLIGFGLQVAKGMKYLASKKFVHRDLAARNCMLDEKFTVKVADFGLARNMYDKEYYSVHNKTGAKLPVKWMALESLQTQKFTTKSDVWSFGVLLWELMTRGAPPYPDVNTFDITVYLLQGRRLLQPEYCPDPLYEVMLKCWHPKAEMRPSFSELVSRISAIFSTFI
T3 sequence (P08581 1078-1345 D1228H): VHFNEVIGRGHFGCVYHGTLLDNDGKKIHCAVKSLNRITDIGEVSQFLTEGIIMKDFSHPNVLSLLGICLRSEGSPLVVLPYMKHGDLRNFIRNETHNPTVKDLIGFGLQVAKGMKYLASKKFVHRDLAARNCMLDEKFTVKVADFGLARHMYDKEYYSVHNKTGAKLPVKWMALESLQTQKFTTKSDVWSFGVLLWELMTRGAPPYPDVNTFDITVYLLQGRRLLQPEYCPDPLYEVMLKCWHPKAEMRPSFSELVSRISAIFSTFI

`CC(C)n1cc(C(=O)Nc2ccc(Oc3ccnc4cc(OC(F)(F)F)ccc34)cn2)c(=O)c(-c2ccc(F)cc2)c1` [Example 50, 5-(4-fluorophenyl)-1-isopropyl-4-oxo-N-(5-((7-(trifluoromethoxy)quinolin-4-yl)oxy)pyridin-2-yl)-1,4-dihydropyridine-3-carboxamide]: the IC50 in assay [1] is 0.016 µM; in assay [2] it was 0.079 µM; at human MET kinase D1228H, 0.223 µM; on human MET kinase D1228N, 0.445 µM.

With `COc1cc2nccc(Oc3ccc(NC(=O)c4cn(CC(=O)N5CCCC5)cc(-c5ccc(F)cc5F)c4=O)nc3)c2cc1OC` [Example 14], the IC50 in assay [1] was 0.002 µM; in assay [2] it was 0.012 µM; at human MET kinase D1228H, 0.0354 µM; at human MET kinase D1228N, 0.0306 µM.
